How the values were obtained:
[1] = test system: system I cytochrome c biogenesis; experiment: Metalloprotoporphyrin IX addition, E. coli ΔccmΔhemA with pRGK333 (system I), pRGK332, pHPEX2 and 8 μM heme; type: cell-based; conditions: for effect on the level of detectable heme on c4:6×His (holocytochrome c4): metalloporphyrin 8, 12.5 or 25 μM with 8 μM heme
Description: (§1) Overnight cultures of an E. coli Δccm strain (or E. coli ΔccmΔhemA) harboring either pRGK333 (system I) or pRGK348 (system II-chuA), pRGK332 (cytochrome c4:6×His), and pHPEX2 (Varnado and Goodwin, 2004) were diluted into fresh LB broth (containing the appropriate antibiotics and 8 μM hemin for the E. coli ΔccmΔhemA strain) and incubated with aeration at 37° C. until the OD600 was approximately 0.5. The mid-log phase cultures were divided into 5 mL aliquots to which IPTG (1 mM) and a metalloprotoporphyrin IX (Zn (II), Sn (IV), Co (III), or Mn (III); 0 μM to 25 μM) were added. Arabinose (0.2%) was added after one hour and incubation continued for an additional three hours. Cells were harvested and soluble protein was extracted using B-PER (Feissner et al., 2006). Cytochrome c4:6×His was purified from 300 μg of total protein and 20 μL was subjected to SDS-PAGE and transferred to nitrocellulose. Prior to heme stain and c4 immunoblot, the nitrocellulose blots were screened for fluorescence on an LAS-1000plus Luminescent Image Analyzer CCD camera system (Fujifilm; Tokyo, Japan).
(§2) Heme stains were performed as described (Feissner et al., 2003) using SuperSignal Femto chemiluminescent substrate (Pierce). Heme stain quantitation used LOLITA II (Low Light Test Array; raytestUSA; Wilmington, N.C.) for standardization of light intensity detection on an LAS1000plus Luminescent Image Analyzer CCD camera system. For Western blotting, extracts were first separated by 12% or 15% SDS-PAGE and electroblotted onto Hybond-C nitrocellulose membranes (Amersham). Protein A peroxidase (Sigma-Aldrich) was used as the secondary label. Detection used the SuperSignal West Femto ECL detection system (Pierce). Chemiluminescence from heme stains and Western blots were detected using an LAS-1000plus Luminescent Image Analyzer CCD camera system (Fujifilm). Protein concentrations were determined using the BCA assay (Pierce) using BSA as a standard. The reduced (10 mM sodium dithionite) and oxidized (10 mM ammonia persulphate) absorption spectra were obtained as previously described (Goldman et al., 1996) using Ni^2+ affinity-purified holocytochrome c4:His. Protein concentrations were determined with the BCA assay kit (Pierce) using BSA as a standard.
The chemical properties of iron may not be uniquely critical for its attachment to apocytochrome c during cytochromes c biogenesis. To test whether any of the cytochromes c biogenesis systems can incorporate other metal porphyrins, four metalloporphyrins were chosen to screen for incorporation into the into the CXXCH motif of a c-type cytochrome: ZnPPIX, SnPPIX, MnPPIX, and CoPPIX. These four metalloporphyrins were tested to determine whether heme can be replaced by other metalloporphyrins in the c-type cytochrome (c4:6×His) reporter. Cultures of E. coli ΔccmΔhemA containing pRGK333 (system I), pRGK332 (c4:6×His), and pHPEX2 were grown overnight in 300 μM ALA and subcultured into fresh LB medium containing 8 μM heme and grown to an OD600 of 0.5. IPTG and metalloporphyrin (8 μM, 12.5 μM, or 25 μM) were then added and growth continued for one hour. Arabinose was added to 0.2% to induce the synthesis of the c4:6×His and growth continued for three more hours before cells were harvested. […] As expected, heme was detected on c4:6×His when either 8 μM or 25 μM heme alone was added (FIG. 15 lanes 1 and 2, respectively).

[2] = test system: system I cytochrome c biogenesis; experiment: Metalloprotoporphyrin IX addition, E. coli Δccm with pRGK333 (system I), pRGK332 and pHPEX2; type: cell-based; conditions: for level of heme on c4:6×His: system I, up to 100 μM
Description: as §1, with “The mid-log phase cultures were divided into 5 mL aliquots to which IPTG (1 mM) and a metalloprotoporphyrin IX (Zn (II), Sn (IV), Co (III), or Mn (III); 0 μM to 25 μM) were added.” left out
as §2
ZnPPIX (and SnPPIX), when present with 8 μM heme, may compete with heme for ChuA-dependent transport into the cell. Using an E. coli Δccm strain (RK103) that has endogenous heme production, it was tested whether ZnPPIX (and SnPPIX) caused a reduction in holocytochrome c4 levels detectable by heme stain. When E. coli Δccm with pRGK333 (system I), pRGK332, and pHPEX2 were treated with ZnPPIX, a decrease in holocytochrome c4:6×His was detected as the concentration of ZnPPIX was increased (FIG. 16A left panel, lanes 1-5).
The three other metal protoporphyrins, SnPPIX, MnPPIX, and CoPPIX, were also tested in the E. coli Δccm background with system I or II. […]

[3] = test system: system II cytochrome c biogenesis (H. pylori CcsBA); experiment: Metalloprotoporphyrin IX addition, E. coli Δccm with pRGK348 (system II-chuA) and pRGK332; type: cell-based; conditions: for level of heme on c4:6×His: system II, up to 100 μM
Description: as §1, with “The mid-log phase cultures were divided into 5 mL aliquots to which IPTG (1 mM) and a metalloprotoporphyrin IX (Zn (II), Sn (IV), Co (III), or Mn (III); 0 μM to 25 μM) were added.” left out
as §2, with “Protein A peroxidase (Sigma-Aldrich) was used as the secondary label. Detection used the SuperSignal West Femto ECL detection system (Pierce).” left out, “The reduced (10 mM sodium dithionite) and oxidized (10 mM ammonia persulphate) absorption spectra were obtained as previously described (Goldman et al., 1996) using Ni^2+ affinity-purified holocytochrome c4:His.” left out
ZnPPIX (and SnPPIX), when present with 8 μM heme, may compete with heme for ChuA-dependent transport into the cell. […] When E. coli Δccm with pRGK333 (system I), pRGK332, and pHPEX2 were treated with ZnPPIX, a decrease in holocytochrome c4:6×His was detected as the concentration of ZnPPIX was increased (FIG. 16A left panel, lanes 1-5). […]

E. coli Δccm = experiment: Growth of E. coli Δccm with pRGK333, pRGK332 and pHPEX2 in the presence of ZnPPIX; type: cell-based; conditions: 12.5 μM or 25 μM; compared to the same strain without ZnPPIX
Description: FIG. 21. Growth of E. coli Dccm containing pRGK333, pRGK332, and HPEX2 in the presence of ZnPPIX. Overnight cultures of E. coli Dccm containing pRGK333 (system I), pRGK332 (cytochrome c4:6×His), and pHPEX2 were diluted into fresh LB broth containing the indicated ZnPPIX ([…]) concentrations for growth measurements.
To rule out that ZnPPIX is not affecting some basic cellular processes, growth studies were performed with E. coli Δccm harboring pRGK333 (system I), pRGK332 (c4:6×His), and pHPEX2.

[4] = test system: system II cytochrome c biogenesis (H. pylori CcsBA); experiment: NMPP inhibition of holocytochrome c4:His synthesis, RK103 with pRGK334 (system II) and pRGK332; type: cell-based, E. coli; conditions: all trials; heme stain
Description: (§3) Five milliliter cultures of E. coli Δccm harboring either the pRGK333 or pRGK334 plasmid and pRGK332, or pRGK345 and pRGK349, were inoculated with 300 μl of overnight culture grown for 3 h to mid-exponential phase (A600=0.6). At this point, IPTG and NMPP (Frontier Scientific) were added to each culture; IPTG was added (1 mM) to induce the synthesis of system I (pRGK333), system II (pRGK334), or ΔccmE (pRGK345) while NMPP (10 mM stock in 50% DMSO) was added to a final concentration of 0-100 μM. After addition of IPTG and NMPP, cultures were grown an additional hour before induction of cytochrome c4:His (and ccmE from pRGK349) with 0.2% arabinose. Cells were grown for an additional 3 h and then harvested by centrifugation. […]
(§4) Heme stains were performed as described (Feissner et al., 2003) using SuperSignal Femto chemiluminescent substrate (Pierce). Heme stain quantitation used LOLITA II (Low Light Test Array; raytestUSA; Wilmington, N.C.) for standardization of light intensity detection on an LAS1000plus Luminescent Image Analyzer CCD camera system. […] Chemiluminescence from heme stains and Western blots were detected using an LAS-1000plus Luminescent Image Analyzer CCD camera system (Fujifilm). Protein concentrations were determined using the BCA assay (Pierce) using BSA as a standard. […] Protein concentrations were determined with the BCA assay kit (Pierce) using BSA as a standard. […]

[5] = test system: system I cytochrome c biogenesis with arabinose-inducible CcmE; experiment: NMPP inhibition, RK103 with pRGK345 (system I, ccmE deletion) and pRGK349 (arabinose-inducible c4:His and CcmE); type: cell-based, E. coli; conditions: 100 μM NMPP; compared with pRGK333 and constitutively produced CcmE
Description: as §3, §4

[6] = test system: system I cytochrome c biogenesis; experiment: NMPP-ZnPPIX combined inhibition, E. coli Δccm with pRGK333 (system I), pRGK332 and pHPEX2; type: cell-based
Description: 100 mL cultures of E. coli Δccm containing pRGK333 (system I), pRGK332 (c4:6×His), and pHPEX2 (Varnado and Goodwin, 2004) were inoculated with 1% (v/v) from an overnight culture and grown with aeration at 37° C. to an OD600 of approximately 0.5. The mid-log phase cultures were divided into 5 mL aliquots to which IPTG (1 mM, to induce the synthesis of the system I proteins and the chuA gene) and NMPP (0 μM to 100 μM) were added. After one hour 0.2% arabinose was added (to induce the synthesis of the B. pertussis c4:6×His) and cultures were incubated an additional three hours. […]
as §4

C=Cc1c(C)c2cc3[nH]c(cc4nc(cc5nc(cc1[nH]2)C(C)=C5CCC(=O)[O-])C(CCC(=O)[O-])=C4C)c(C)c3C=C.[Co+2] [CoPPIX, cobalt (III) protoporphyrin IX]
effect on the level of detectable heme on c4:6×His (holocytochrome c4) [1]: neither CoPPIX nor MnPPIX had any affect
level of heme on c4:6×His [2]: no decrease
level of heme on c4:6×His [3]: no decrease

C=CC1=C(C)c2cc3[n-]c(cc4[n-]c(cc5nc(cc1n2)C(C)=C5C=C)c(C)c4CCC(=O)[O-])c(CCC(=O)[O-])c3C.[H+].[H+].[Mn+2] [MnPPIX, manganese (III) protoporphyrin IX]
effect on the level of detectable heme on c4:6×His (holocytochrome c4) [1]: neither CoPPIX nor MnPPIX had any affect
level of heme on c4:6×His [2]: no decrease
level of heme on c4:6×His [3]: no decrease

C=Cc1c2[n-]c(c1C)/C=c1\[n-]/c(c(C)c1C=C)=C\c1[n-]c(c(CCC(=O)O)c1C)C=c1[n-]/c(c(C)c1CCC(=O)O)=C\2.[Sn+4] [SnPPIX, tin (IV) protoporphyrin IX]
effect on the level of detectable heme on c4:6×His (holocytochrome c4) [1]: reduced the level of detectable heme
IC50 ([2]; holocytochrome c4:6×His, heme stain, read-out: concentration required for 50% inhibition of system I): ~65 µM
IC50 ([3]; holocytochrome c4:6×His, heme stain, read-out: concentration required for 50% inhibition of system II): ~18 µM

C=CC1=C(C)c2cc3[n-]c(cc4[n-]c(cc5nc(cc1n2)C(C)=C5C=C)c(C)c4CCC(=O)O)c(CCC(=O)O)c3C.[Zn+2] [ZnPPIX, zinc (II) protoporphyrin IX]
level of heme on c4:6×His ([1]; 25 μM ZnPPIX with 8 μM heme, heme stain): nearly undetectable
effect on the level of detectable heme on c4:6×His (holocytochrome c4) [1]: decreasing amounts of holocytochrome c4
holocytochrome c4:6×His produced, % of wild type levels ([2]; 8 μM ZnPPIX): approximately 20%
rate or yield of growth (E. coli Δccm): no decrease in the rate or yield of growth

N-methylprotoporphyrin [NMPP]
NMPP concentration at which holocytochrome c4:His production was completely abolished [4]: less than 20 μM
amount of holocytochrome c4:His [5]: dramatic reduction
holocytochrome c4:6×His levels ([6]; 60 μM NMPP alone): approximately 54%
holocytochrome c4:6×His levels ([6]; 100 μM NMPP alone): approximately 30%

From US8889378B2, “Cytochrome C synthesis inhibitors” (priority 2006, dated 2014)
